Measurements as given in US8258104B2, “Method and composition for treating allergic diseases” (Wholesome Biopharm Pty Ltd., priority 2006, dated 2012).

Experiments:
Format in all cases: in vivo, BALB/c mice
OVA-sensitized mice [1] = assay: Chemokine/cytokine levels in BAL fluid by ELISA
Protocol: (§1) Female BALB/c mice were obtained and maintained in the Animal Center of the College of Medicine of National Taiwan University (Taiwan, R.O.C.). Animals were used between 6 and 10 weeks of age and were age matched within each experiment. Animal experiment protocol was approved by Animal Committee of the College of Medicine of National Taiwan University (Taiwan, R.O.C.).
(§2) Mice were randomly divided into 4 groups and sensitized by an intraperitoneal injection of OVA (10 μg), which were complexed with aluminum potassium sulfate (alum, 2 mg) on day 0. All mice were boosted with another shot of OVA (10 μg) on day 14 and day 28, respectively. The mice in the negative control group were injected with phosphate buffer solution (PBS). As to the mice in the rest three groups, each group received 20 μl of 0, 10 or 30 mg/ml ribavirin together with intranasal challenge of 0.05 mg of OVA on days 38-40, respectively. AHR for mice in each group was measured on day 41, and all mice were bled and sacrificed on day 42, when the experiment ended. FIG. 1 illustrated the timeline of the above-identified OVA protocol used in this study.
OVA-sensitized mice were lavage according to the procedure described above, and the levels of chemokines were assayed by an ELISA kit (R&D) in accordance with the manufacturer's instructions. Take the measurement of eotaxin as an example, the BAL fluid was collected and added to wells precoated with anti-eotaxin antibodies over night at 4° C. After incubation for 2 hours, the plates were washed and biotin-conjugated antibodies were added. After two more hours at room temperature, HRP-avidin was then added, and the OD (at 450 nm) values were converted to concentrations of eotaxin in the BALF. The level of other chemokines including KC, IL-4 and INF-γ may be measured according to similar procedures. Results were illustrated in FIG. 5.

OVA-sensitized mice [2] = assay: Airway hyper-responsiveness (AHR) to aerosolized methacholine, whole-body plethysmography (Penh); settings: intranasal ribavirin 10 or 30 mg/ml, Mch 0-50 mg/ml, FIG. 2
Protocol: as §1
Mice were randomly divided into 4 groups and sensitized by an intraperitoneal injection of OVA (10 μg), which were complexed with aluminum potassium sulfate (alum, 2 mg) on day 0. All mice were boosted with another shot of OVA (10 μg) on day 14 and day 28, respectively. The mice in the negative control group were injected with phosphate buffer solution (PBS). […] AHR for mice in each group was measured on day 41, and all mice were bled and sacrificed on day 42, when the experiment ended. […]
The effect of ribavirin on airway responsiveness to aerosolized methacholine (Mch) in OVA-sensitized mice were assessed by the following procedures. […] Each reading was taken for 3 minutes and averaged for the entire time course after nebulization. Calculated Data were expressed as the fold increases above saline challenge baseline values using the dimensionless parameter Penh as described. […]

OVA-sensitized mice [3] = assay: Cellular composition of bronchoalveolar lavage (BAL) fluid (airway eosinophilic inflammation); settings: ribavirin 10 or 30 mg/ml intranasal
Protocol: as §1, §2
Whether ribavirin could alleviate airway inflammation in OVA-sensitized mice was determined by analyzing the cellular composition in the bronchoalveolar lavage (BAL) fluid of the sensitized mice 48 hours a the last challenge. In brief, all groups of OVA sensitized mice were bled from the retro-orbital venous plexus and sacrificed. The lung was immediately lavaged via the trachea cannula with 3×1 ml of HBSS, free of ionized calcium and magnesium. The lavage fluid was centrifuged at 400 xg for 10 minutes at 4° C. After washing, the cells were resuspended in 1 ml HBSS and total cells counts were determined by use of a hemocytometer. Cytocentrifuged preparations were stained with Liu's stain for different cell counts. A minimum of 200 cells was counted and classified as macrophages, lymphocytes, neutrophils and eosinophils, based on standard morphological criteria. Results were illustrated in FIG. 3. […] On the contrary, treatment of ribavirin (10 or 30 mg/ml) decreased not only the total cell counts (FIG. 3A), but also the number of respective cell types including monocytes, neutrophils, and eosinophiles (FIG. 3B).

OVA-sensitized mice [4] = assay: Lung tissue histology (hematoxylin and eosin, light microscope); settings: ribavirin 30 and 10 mg/ml; FIG. 4
Protocol: as §1, §2
After the lavage, the lungs were immediately removed and fixed in 10% neutral-buffered formalin, routinely processed, and embedded in paraffin wax. […]

## NC(=O)c1ncn([C@@H]2O[C@H](CO)[C@@H](O)[C@H]2O)n1 [ribavirin]
OVA-sensitized mice [1]; FIG. 5a
  level of IF-γ in BAL fluid: not affected
OVA-sensitized mice [1]; FIG. 5b
  level of IL-4 in BAL fluid: not affected
OVA-sensitized mice [1]; FIG. 5c
  level of KC in BAL fluid: significant reduced
OVA-sensitized mice [1]; FIG. 5d
  level of eotaxin in BAL fluid: significant reduced
OVA-sensitized mice [2]
  airway responsiveness to Mch (Penh): inhibited the increase in airway responsiveness to Mch
OVA-sensitized mice [3]; 48 hours after last challenge, FIG. 3A
  total cell counts in BAL fluid: decreased
OVA-sensitized mice [3]; FIG. 3B
  number of eosinophils in BAL fluid: decreased
  number of monocytes in BAL fluid: decreased
  number of neutrophils in BAL fluid: decreased
OVA-sensitized mice [4]
  infiltration of cells in the lung: efficiently inhibit the infiltration of the cells
  pathological damage within the lung: reduce the pathological damage within the lung
